Like-named read-outs stand apart in the source and are kept apart here.
Assays:
KAT6A Full length enzyme = KAT6A Full length enzyme (Homo sapiens (Human), UniProt Q92794); assay: KAT6A assay (SAMDI-MS acetylation of H3 1-21 peptide); assay type: biochemical; settings: replicate number in parentheses
[1] = biological target: KAT7+JADE1+EAF6+ING5 4 protein complex (Homo sapiens (Human), UniProt O95251); assay: KAT7 JADE1 assay (SAMDI-MS acetylation of H3 1-21 peptide); assay type: biochemical; settings: replicate number in parentheses
[2] = Morrison equation fit, read-out: KAT6A Ki (nM) (replicate number)
[3] = read-out: KAT6A Ki (nM) (replicate)
[4] = read-out: KAT7 JADE1 Ki (nM) (replicate)
[5] = Morrison equation fit, read-out: KAT7 JADE1 Ki (nM) (replicate number)

Sequence of KAT6A Full length enzyme (Q92794 other isoform, or with tags, fused parts or gaps): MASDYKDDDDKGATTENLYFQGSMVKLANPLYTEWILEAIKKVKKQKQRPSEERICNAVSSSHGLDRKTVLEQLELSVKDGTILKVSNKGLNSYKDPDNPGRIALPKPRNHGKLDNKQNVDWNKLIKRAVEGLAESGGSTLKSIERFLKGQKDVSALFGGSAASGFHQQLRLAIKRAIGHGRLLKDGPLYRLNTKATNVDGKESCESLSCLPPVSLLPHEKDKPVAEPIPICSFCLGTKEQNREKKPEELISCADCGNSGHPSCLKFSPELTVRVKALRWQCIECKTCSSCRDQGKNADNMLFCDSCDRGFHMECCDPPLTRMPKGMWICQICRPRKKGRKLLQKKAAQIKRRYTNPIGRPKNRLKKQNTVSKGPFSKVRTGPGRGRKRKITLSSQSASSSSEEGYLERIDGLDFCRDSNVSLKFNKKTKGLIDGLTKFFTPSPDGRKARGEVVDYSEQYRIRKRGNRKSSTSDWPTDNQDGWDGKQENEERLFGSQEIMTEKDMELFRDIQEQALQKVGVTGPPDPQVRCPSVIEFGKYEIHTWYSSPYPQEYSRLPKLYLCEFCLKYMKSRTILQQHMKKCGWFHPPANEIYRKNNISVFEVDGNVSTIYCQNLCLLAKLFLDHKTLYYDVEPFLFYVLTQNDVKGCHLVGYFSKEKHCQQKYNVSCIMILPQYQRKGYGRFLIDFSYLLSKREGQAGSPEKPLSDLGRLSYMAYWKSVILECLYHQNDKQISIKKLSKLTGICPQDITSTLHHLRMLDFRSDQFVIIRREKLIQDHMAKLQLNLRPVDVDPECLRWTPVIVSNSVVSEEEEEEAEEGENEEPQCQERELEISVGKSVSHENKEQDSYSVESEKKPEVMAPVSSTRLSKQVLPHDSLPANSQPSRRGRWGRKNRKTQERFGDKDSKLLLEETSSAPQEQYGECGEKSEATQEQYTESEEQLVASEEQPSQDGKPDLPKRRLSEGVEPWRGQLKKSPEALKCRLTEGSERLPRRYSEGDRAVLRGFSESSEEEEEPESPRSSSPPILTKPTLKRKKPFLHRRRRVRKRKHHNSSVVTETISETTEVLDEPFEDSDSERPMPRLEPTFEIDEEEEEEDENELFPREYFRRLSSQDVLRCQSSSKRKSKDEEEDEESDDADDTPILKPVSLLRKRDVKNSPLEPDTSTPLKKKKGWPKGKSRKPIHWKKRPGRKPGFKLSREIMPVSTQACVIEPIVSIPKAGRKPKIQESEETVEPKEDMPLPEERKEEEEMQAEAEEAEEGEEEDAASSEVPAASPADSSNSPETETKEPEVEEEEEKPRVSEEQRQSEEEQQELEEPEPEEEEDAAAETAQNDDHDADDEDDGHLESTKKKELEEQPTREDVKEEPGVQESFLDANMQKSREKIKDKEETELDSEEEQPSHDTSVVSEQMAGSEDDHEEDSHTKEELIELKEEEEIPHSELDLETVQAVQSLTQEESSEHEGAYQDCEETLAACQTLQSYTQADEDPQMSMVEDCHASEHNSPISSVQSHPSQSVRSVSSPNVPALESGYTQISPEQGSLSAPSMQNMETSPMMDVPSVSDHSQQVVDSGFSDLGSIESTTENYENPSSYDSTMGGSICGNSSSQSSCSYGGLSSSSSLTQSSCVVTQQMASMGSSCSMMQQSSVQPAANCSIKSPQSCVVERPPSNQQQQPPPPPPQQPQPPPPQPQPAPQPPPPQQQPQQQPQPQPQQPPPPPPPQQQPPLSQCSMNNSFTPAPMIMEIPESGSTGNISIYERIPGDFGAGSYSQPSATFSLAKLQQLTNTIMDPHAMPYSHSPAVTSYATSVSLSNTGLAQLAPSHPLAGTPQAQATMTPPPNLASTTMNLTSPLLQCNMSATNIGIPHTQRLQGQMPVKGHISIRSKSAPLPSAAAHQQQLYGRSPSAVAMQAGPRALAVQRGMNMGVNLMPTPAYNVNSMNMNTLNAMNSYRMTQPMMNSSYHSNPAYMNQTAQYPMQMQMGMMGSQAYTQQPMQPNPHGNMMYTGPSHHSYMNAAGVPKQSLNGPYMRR

COc1cc2c(NS(=O)(=O)c3c(OC)cc(C4CCCN(CC(F)(F)F)C4)cc3OC)noc2cc1Nc1cc(C2CC2)n[nH]1 (single isomer, unassigned) [Example 170, N-{6-[(3-cyclopropyl-1 H-pyrazol-5-yl)amino]-5-methoxy-1,2-benzoxazol-3-yl}-2,6-dimethoxy-4-[1-(2,2,2-trifluoroethyl)piperidin-3-yl]benzene-1-sulfonamide]
Ki (KAT6A Full length enzyme; [2]): 0.4 nM

COc1cc2c(NS(=O)(=O)c3c(OC)cc(C4CCCOC4)cc3OC)noc2cc1Nc1cc(C2CC2)n[nH]1 (single isomer, unassigned) [Example 268, N-{6-[(3-cyclopropyl-1 H-pyrazol-5-yl)amino]-5-methoxy-1,2-benzoxazol-3-yl}-2,6-dimethoxy-4-(oxan-3-yl)benzene-1-sulfonamide]
Ki (KAT6A Full length enzyme; [3]): 1.2 nM | Ki [1, 4]: 8.8 nM

CCc1cc(Nc2cc3onc(NS(=O)(=O)c4c(OC)cc(-c5nccn5C)cc4OC)c3cc2OC)[nH]n1 [Example 237, N-{6-[(3-ethyl-1H-pyrazol-5-yl)amino]-5-methoxy-1,2-benzoxazol-3-yl}-2,6-dimethoxy-4-(1-methyl-1H-imidazol-2-yl)benzene-1-sulfonamide]
Ki (KAT6A Full length enzyme; [2]): 1.4 nM | Ki [1, 5]: 15.4 nM

COc1cc2c(NS(=O)(=O)c3c(OC)cc(C(C)N4CCOCC4)cc3OC)noc2cc1Nc1cc(C2CC2)n[nH]1 (single isomer, unassigned) [Example 208, N-{6-[(3-cyclopropyl-1H-pyrazol-5-yl)amino]-5-methoxy-1,2-benzoxazol-3-yl}-2,6-dimethoxy-4-[1-(morpholin-4-yl)ethyl]benzene-1-sulfonamide]
Ki (KAT6A Full length enzyme; [2]): 2.4 nM | Ki [1, 5]: 7.6 nM

COc1cccc(OC)c1S(=O)(=O)Nc1noc2cc(NC3COC3)cc(OC)c12 [Example 11, 2,6-dimethoxy-N-{4-methoxy-6-[(oxetan-3-yl)amino]-1,2-benzoxazol-3-yl}benzene-1-sulfonamide]
Ki (KAT6A Full length enzyme; [2]): 31.1 nM | Ki [1, 5]: > 2340 nM

COc1cc2c(NS(=O)(=O)c3c(OC)cc(CN4CCC[C@H](F)C4)cc3OC)noc2cc1Nc1cc(C2CC2)n[nH]1 (single isomer, unassigned) [Example 197, N-{6-[(3-cyclopropyl-1H-pyrazol-5-yl)amino]-5-methoxy-1,2-benzoxazol-3-yl}-4-[(3-fluoropiperidin-1-yl)methyl]-2,6-dimethoxybenzene-1-sulfonamide]
Ki (KAT6A Full length enzyme; [2]): 1.3 nM | Ki [1, 5]: 7.3 nM

COc1cc2c(NS(=O)(=O)c3c(OC)cc(C(=O)N4CC(F)(F)C4)cc3OC)noc2cc1Nc1cc(C2CC2)n[nH]1 [Example 264, N-{6-[(3-cyclopropyl-1H-pyrazol-5-yl)amino]-5-methoxy-1,2-benzoxazol-3-yl}-4-(3,3-difluoroazetidine-1-carbonyl)-2,6-dimethoxybenzene-1-sulfonamide]
Ki (KAT6A Full length enzyme; [3]): 2.3 nM | Ki [1, 4]: 17.6 nM

COc1cc2c(NS(=O)(=O)c3c(OC)cc(C4CCN([C@H]5CCOC5)C4)cc3OC)noc2cc1Nc1cc(C2CC2)n[nH]1 (single isomer, unassigned) [Example 163]
Ki (KAT6A Full length enzyme; [2]): 1.4 nM | Ki [1, 5]: 8.2 nM

COc1cc2c(NS(=O)(=O)c3c(OC)cc(C4CCOC4)cc3OC)noc2cc1Nc1cc(C2CC2)n[nH]1 (single isomer, unassigned) [Example 266, N-{6-[(3-cyclopropyl-1H-pyrazol-5-yl)amino]-5-methoxy-1,2-benzoxazol-3-yl}-2,6-dimethoxy-4-(oxolan-3-yl)benzene-1-sulfonamide]
Ki (KAT6A Full length enzyme; [3]): 1.6 nM | Ki [1, 4]: 13.6 nM

COc1cc2c(NS(=O)(=O)c3c(OC)cc(CN4CCCC4(C)C)cc3OC)noc2cc1Nc1cc(C2CC2)n[nH]1 [Example 206, N-{6-[(3-cyclopropyl-1H-pyrazol-5-yl)amino]-5-methoxy-1,2-benzoxazol-3-yl}-4-[(2,2-dimethylpyrrolidin-1-yl)methyl]-2,6-dimethoxybenzene-1-sulfonamide]
Ki (KAT6A Full length enzyme; [2]): 4.4 nM | Ki [1, 5]: 28.8 nM

CCc1nc(Nc2cc3onc(NS(=O)(=O)c4c(OC)cccc4OC)c3cc2OC)no1 [Example 43, N-{6-[(5-ethyl-1,2,4-oxadiazol-3-yl)amino]-5-methoxy-1,2-benzoxazol-3-yl}-2,6-dimethoxybenzene-1-sulfonamide]
Ki (KAT6A Full length enzyme; [2]): 55.5 nM | Ki [1, 5]: > 2340 nM

COc1cc2c(NS(=O)(=O)c3c(OC)cc(C4CCCN(CC(F)F)C4)cc3OC)noc2cc1Nc1cc(C2CC2)n[nH]1 (single isomer, unassigned) [Example 167, N-{6-[(3-cyclopropyl-1 H-pyrazol-5-yl)amino]-5-methoxy-1,2-benzoxazol-3-yl}-4-[1-(2,2-difluoroethyl)piperidin-3-yl]-2,6-dimethoxybenzene-1-sulfonamide]
Ki (KAT6A Full length enzyme; [2]): 0.9 nM | Ki [1, 5]: 4 nM

COc1cc2c(NS(=O)(=O)c3c(OC)cc(C(=O)N4CC(F)C4)cc3OC)noc2cc1Nc1cc(C2CC2)n[nH]1 [Example 262, N-{6-[(3-cyclopropyl-1H-pyrazol-5-yl)amino]-5-methoxy-1,2-benzoxazol-3-yl}-4-(3-fluoroazetidine-1-carbonyl)-2,6-dimethoxybenzene-1-sulfonamide]
Ki (KAT6A Full length enzyme; [3]): 1 nM | Ki [1, 4]: 8.1 nM

COc1cc2c(NS(=O)(=O)c3c(OC)cc(C4CCCN4CC(F)F)cc3OC)noc2cc1Nc1cc(C2CC2)n[nH]1 (single isomer, unassigned) [Example 166, N-{6-[(3-cyclopropyl-1 H-pyrazol-5-yl)amino]-5-methoxy-1,2-benzoxazol-3-yl}-4-[1-(2,2-difluoroethyl)pyrrolidin-2-yl]-2,6-dimethoxybenzene-1-sulfonamide]
Ki (KAT6A Full length enzyme; [2]): 1.6 nM | Ki [1, 5]: 8.5 nM

CCc1cc(Nc2cc3onc(NS(=O)(=O)c4c(OC)cc(-c5cn(C)cn5)cc4OC)c3cc2OC)[nH]n1 [Example 238, N-{6-[(3-ethyl-1H-pyrazol-5-yl)amino]-5-methoxy-1,2-benzoxazol-3-yl}-2,6-dimethoxy-4-(1-methyl-1H-imidazol-4-yl)benzene-1-sulfonamide]
Ki (KAT6A Full length enzyme; [2]): 1.2 nM | Ki [1, 5]: 12.7 nM

COc1cc2c(NS(=O)(=O)c3c(OC)cc(C(=O)N4CC[C@@H](F)C4)cc3OC)noc2cc1Nc1cc(C2CC2)n[nH]1 [Example 258, N-{6-[(3-cyclopropyl-1H-pyrazol-5-yl)amino]-5-methoxy-1,2-benzoxazol-3-yl}-4-[(3R)-3-fluoropyrrolidine-1-carbonyl]-2,6-dimethoxybenzene-1-sulfonamide]
Ki (KAT6A Full length enzyme; [3]): 1 nM | Ki [1, 4]: 5.9 nM

COc1cc2c(NS(=O)(=O)c3c(OC)cc(C4CN(C)CC(F)(F)C4)cc3OC)noc2cc1Nc1cc(C2CC2)[nH]n1 (single isomer, unassigned) [Example 229, N-{6-[(5-cyclopropyl-1 H-pyrazol-3-yl)amino]-5-methoxy-1,2-benzoxazol-3-yl}-4-(5,5-difluoro-1-methylpiperidin-3-yl)-2,6-dimethoxybenzene-1-sulfonamide]
Ki (KAT6A Full length enzyme; [2]): 1.7 nM | Ki [1, 5]: 6.4 nM

COc1cc2c(NS(=O)(=O)c3c(OC)cc(CN4CCC(OC)CC4)cc3OC)noc2cc1Nc1cc(C2CC2)n[nH]1 [Example 194, N-{6-[(3-cyclopropyl-1 H-pyrazol-5-yl)amino]-5-methoxy-1,2-benzoxazol-3-yl}-2,6-dimethoxy-4-[(4-methoxypiperidin-1-yl)methyl]benzene-1-sulfonamide]
Ki (KAT6A Full length enzyme; [2]): 1.7 nM | Ki [1, 5]: 6.3 nM

COc1cc2c(NS(=O)(=O)c3c(OC)cc(C4CCN(C)C4)cc3OC)noc2cc1Nc1cc(C2CC2)n[nH]1 (single isomer, unassigned) [Example 147, N-{6-[(3-cyclopropyl-1 H-pyrazol-5-yl)amino]-5-methoxy-1,2-benzoxazol-3-yl}-2,6-dimethoxy-4-(1-methylpyrrolidin-3-yl)benzene-1-sulfonamide]
Ki (KAT6A Full length enzyme; [2]): 1.6 nM | Ki [1, 5]: 12.1 nM

COc1cc2c(NS(=O)(=O)c3c(OC)cc(CN4CC(C)C4)cc3OC)noc2cc1Nc1cc(C2CC2)n[nH]1 [Example 200, N-{6-[(3-cyclopropyl-1 H-pyrazol-5-yl)amino]-5-methoxy-1,2-benzoxazol-3-yl}-2,6-dimethoxy-4-[(3-methylazetidin-1-yl)methyl]benzene-1-sulfonamide]
Ki (KAT6A Full length enzyme; [2]): 2.1 nM | Ki [1, 5]: 17.2 nM

CCc1cc(Nc2cc3onc(NS(=O)(=O)c4c(OC)cc(C5COCCO5)cc4OC)c3cc2OC)[nH]n1 (single isomer, unassigned) [Example 239, 4-(1,4-dioxan-2-yl)-N-{6-[(3-ethyl-1H-pyrazol-5-yl)amino]-5-methoxy-1,2-benzoxazol-3-yl}-2,6-dimethoxybenzene-1-sulfonamide]
Ki (KAT6A Full length enzyme; [2]): 2.1 nM | Ki [1, 5]: 14.1 nM

COc1cc2c(NS(=O)(=O)c3c(OC)cc(C4CN(C)CCC4(F)F)cc3OC)noc2cc1Nc1cc(C2CC2)[nH]n1 (centres unmarked) [Example 177, N-{6-[(5-cyclopropyl-1 H-pyrazol-3-yl)amino]-5-methoxy-1,2-benzoxazol-3-yl}-4-[4,4-difluoro-1-(^2H3)methylpiperidin-3-yl]-2,6-dimethoxybenzene-1-sulfonamide]
Ki (KAT6A Full length enzyme; [2]): 0.1 nM | Ki [1, 5]: 0.2 nM

COc1cc2c(NS(=O)(=O)c3c(OC)cccc3OC)noc2cc1Nc1cc(C(F)(F)F)n[nH]1 [Example 93, 2,6-dimethoxy-N-(5-methoxy-6-{[3-(trifluoromethyl)-1H-pyrazol-5-yl]amino}-1,2-benzoxazol-3-yl)benzene-1-sulfonamide]
Ki (KAT6A Full length enzyme; [2]): 31.2 nM | Ki [1, 5]: 729 nM

COc1cc2c(NS(=O)(=O)c3c(OC)cccc3OC)noc2cc1Nc1cc(C2CC2)nn1C [Example 48, N-{6-[(3-cyclopropyl-1-methyl-1H-pyrazol-5-yl)amino]-5-methoxy-1,2-benzoxazol-3-yl}-2,6-dimethoxybenzene-1-sulfonamide]
Ki [1, 5]: > 12500 nM

COc1cc2c(NS(=O)(=O)c3c(OC)cc(C4CCCN(CC(F)(F)F)C4)cc3OC)noc2cc1Nc1cc(C2CC2)n[nH]1 (single isomer, unassigned) [Example 169, N-{6-[(3-cyclopropyl-1 H-pyrazol-5-yl)amino]-5-methoxy-1,2-benzoxazol-3-yl}-2,6-dimethoxy-4-[1-(2,2,2-trifluoroethyl)piperidin-3-yl]benzene-1-sulfonamide]
Ki (KAT6A Full length enzyme; [2]): 0.5 nM

— patent US20250122183A1 (Pfizer Inc., priority 2023, published 2025)
